Results from patent publication US10273279B2, “Protease activated receptor-1 (PAR1) derived cytoprotective polypeptides and related methods” (THE SCRIPPS RESEARCH INSTITUTE, priority 2011, dated 2019).
Substitutions are numbered along the chain they refer to.

What was measured:
[1] = molecular target: T1, synthetic PAR1 peptide (TR33-62) (Homo sapiens, UniProt P25116); test: Cleavage of synthetic PAR1 peptide TR33-62 by APC or thrombin, reverse phase HPLC and MALDI-TOF; assay type: biochemical; conditions: APC 500 nM or thrombin 5 nM, TR33-62 100 μM, HBS pH 7.4
T1 construct: purchased Biosynthesis; host or cells: chemical synthesis
T1 sequence (P25116 33-62 limits assumed): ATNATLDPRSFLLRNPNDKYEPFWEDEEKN
From the text: Samples were subjected to reverse phase HPLC on a C18 column while the eluent was monitored at 214 nm during a 0%-67% gradient of acetonitrile in water containing 0.1% trifluoroacetic acid. Peptide fragments were collected and subjected to MALDI-TOF (Scripps mass spectrometry core facility) analysis.

SEAP-PAR1 [2] = molecular target: T2, SEAP-PAR1 (Homo sapiens, UniProt P25116, R46Q); test: SEAP-PAR1 cleavage reporter on transfected HEK-293 cells (SEAP release); assay type: cell-based; conditions: cells with wt-EPCR
T2 construct: we created a full-length PAR-1 construct linked at the N-terminus to an alkaline phosphatase reporter group (SEAP); expressed in transfected cells
T2 sequence (P25116 22-425 R46Q): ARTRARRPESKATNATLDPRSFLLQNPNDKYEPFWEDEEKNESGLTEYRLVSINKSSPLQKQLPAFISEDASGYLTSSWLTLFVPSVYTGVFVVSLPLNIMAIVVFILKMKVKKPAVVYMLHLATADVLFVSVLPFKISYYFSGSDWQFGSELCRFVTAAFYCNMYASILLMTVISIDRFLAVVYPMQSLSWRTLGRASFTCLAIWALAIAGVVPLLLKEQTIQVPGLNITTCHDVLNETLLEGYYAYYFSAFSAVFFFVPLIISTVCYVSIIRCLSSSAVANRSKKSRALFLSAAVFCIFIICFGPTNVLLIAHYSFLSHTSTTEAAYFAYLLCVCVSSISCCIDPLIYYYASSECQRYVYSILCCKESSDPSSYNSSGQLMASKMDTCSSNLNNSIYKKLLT
From the text: (§1) To facilitate analysis of APC-mediated PAR-1 activation, we created a full-length PAR-1 construct linked at the N-terminus to an alkaline phosphatase reporter group (SEAP). Selection of stable cell lines expressing both endothelial protein C receptor (EPCR) (wt or E86A) and SEAP-PAR1 allowed for a reliable and reproducible analysis of EPCR-dependent PAR-1 activation by APC. Mass-spec analysis of cleavage fragments generated by APC of a synthetic PAR-1 N-terminal tail peptide (TR33-62) identified both Arg^41 and Arg^46 as potential cleavage sites for APC proteolysis, as noted above. […] R41Q-SEAP-PAR1 was cleaved by APC in the presence of EPCR. This surprising result was also obtained for R41A-SEAP PAR1.
(§2) 2009; 113:5970-5978. SEAP-PAR1, either in the presence or absence of wt-EPCR, were transfected into HEK-293 cells to obtain stable cells expressing SEAP-PAR1 or wt-EPCR/SEAP-PAR1. Mutations in SEAP-PAR1 were introduced using the Quickchange method (Agilent). Cells were grown in 96-wells plates to confluency in Dulbeco's modified Eagle media (DMEM): Ham's F-12 (Invitrogen) supplemented with penicillin-streptomycin-glutamine (PSG) (Gibco) and 10% fetal bovine serum (Omega) in a humidified atmosphere at 37° C. and 5% CO2 Cells were washed with Hank's balanced salt solution (HBSS; Invitrogen) supplemented with 1.3 mM CaCl2, 0.6 mM MgCl2 and 0.1% endotoxin free BSA (Calbiochem) and incubated with APC. After 60 min, SEAP release was determined using 1-step PNPP (Pierce). Values were corrected for background activity derived from the same cells incubated in the absence of APC and expressed as a percentage of total SEAP available on the cell membrane.

SEAP-PAR1 [3] = molecular target: T3, SEAP-PAR1 (Homo sapiens, UniProt P25116, R41Q); test: as above; assay type: cell-based; conditions: in the presence of EPCR
T3 construct: we created a full-length PAR-1 construct linked at the N-terminus to an alkaline phosphatase reporter group (SEAP); expressed in transfected cells
T3 sequence (P25116 22-425 R41Q): T2 sequence (P25116 22-425 R46Q) with R20Q, Q25R
From the text: as §1, §2

SEAP-PAR1 [4] = molecular target: T4, SEAP-PAR1 (Homo sapiens, UniProt P25116); test: as above; assay type: cell-based; conditions: cells containing wild-type EPCR
T4 construct: we created a full-length PAR-1 construct linked at the N-terminus to an alkaline phosphatase reporter group (SEAP); expressed in transfected cells
T4 sequence (P25116 22-425): T2 sequence (P25116 22-425 R46Q) with Q25R
From the text: as §1, §2

[5] = test system: EA.hy.926 endothelial cells; test: Staurosporine-induced endothelial cell apoptosis (Apopercentage dye); assay type: cell-based, human; conditions: 4 hrs pretreatment, 50 μM NPND, 50 μM scr-NPND or 10 μM TFLL, staurosporine 10 μM
Procedure: Activated Protein C (APC) conveys anti-apoptotic activity to EA.hy.926 cells that requires functional PAR1 receptor and APC binding to the endothelial protein C receptor (EPCR). See, e.g., Mosnier at al., Biochem J. 2003; 373:65-70; and Mosnier at al., Blood. 2007; 109:3161-3172.
Methods: EA.hy.926 cells (ATCC: CRL-2922) were grown in 24 well plates in DMEM (Invitrogen #12430) supplemented with glutamax (Invitrogen #35050) and 10% FBS (Hyclone #35-011-CV) in a 37° C. cell incubator with a humidified atmosphere and 5% CO2 in air until confluency. Cells were treated for 4 hrs with vehicle control, 50 μM NPND, 50 μM scr-NPND or 10 μM TFLL after which staurosporine (10 μM) and the Apopercentage dye (Biocolor) were added according the manufacturer's instructions. After 1 hr cells were washed with 2×1 ml PBS and 110 μl of the dye release agent was added to the cells. Subsequently 100 μl aliquots were transferred to a black 96 well plate and fluorescence was measured (530 nm excitation/580 nm emission). Apoptosis was expressed as a percentage of cells treated with 10 mM H2O2 for which apoptosis was set at 100%.

| Substance | cleavage sites in TR33-62 peptide [1] | cleavage of R46Q-SEAP-PAR1 (SEAP-PAR1 [2]) | cleavage of R41Q-SEAP-PAR1 (SEAP-PAR1 [3]) | cleavage of wt-PAR1 (SEAP-PAR1) (SEAP-PAR1 [4]) | inhibition of staurosporine-induced endothelial cell apoptosis [5] | inhibition of staurosporine-induced endothelial cell apoptosis ([5]; listed as NPND-peptide) |
| --- | --- | --- | --- | --- | --- | --- |
| thrombin | cleavage at Arg^41 | efficient cleavage | did not show any cleavage | cleaved |  |  |
| GDENENEKPNWYELKEPDSF (scrambled sequence) [scr-TR47-66, control scrambled TR47-66 peptide containing scrambled residues 47-66, reference compound] |  |  |  |  | did not convey detectable anti-apoptotic effects |  |
| APC: Activated Protein C, serine protease with anticoagulant and cytoprotective cell signaling activities | cleaves this PAR1 peptide at Arg^46 as well as at Arg^41 | did not eliminate PAR1 cleavage |  | cleaved |  |  |
| NPNDKYEPFWEDEEKNESGL (listed as Homo sapiens) [TR47-66] |  |  |  |  | significantly inhibited | inhibited staurosporine-induced endothelial cell apoptosis |
